Tests used:
Format in all cases: in vivo
[1] = test system: velvetleaf (Abutilon theophrasti); test: Test G Pre-Emergence Protocol; conditions: Abutilon theophrasti, pre-emergence, 312 h, evaluated after 13 days; for pest or weed control at 15.625 g/ha: 15.625 g ai/ha; for pest or weed control at 15.625 g/ha / pest or weed control at 250 g/ha: read-out: Velvetleaf damage rating (100=total damage to plant; 0=no damage to plant); for pest or weed control at 62.5 g/ha: 62.5 g ai/ha, 100=total damage to plant, 0=no damage to plant, read-out: Velvetleaf damage rating; for pest or weed control at 250 g/ha: 250 g ai/ha
Summary of the method: (§1)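 Test compound in 0.5% Tween 20 acetone/water (50:50) was applied at three rates (15.625, 62.5, 250 g/ha) to soil sown one day earlier. After 13 days plants were scored for injury, where 0 means unaffected and 100 means completely damaged.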

[2] = test system: corn (Zea mays); test: Test G Pre-Emergence Protocol; conditions: Zea mays, pre-emergence, 312 h, evaluated after 13 days; for plant injury at 15.625 g/ha: 15.625 g ai/ha; for plant injury at 15.625 g/ha / plant injury at 250 g/ha: read-out: Corn damage rating (100=total damage to plant; 0=no damage to plant); for plant injury at 62.5 g/ha: 62.5 g ai/ha, 100=total damage to plant, 0=no damage to plant, read-out: Corn damage rating; for plant injury at 250 g/ha: 250 g ai/ha
Summary of the method: as §1

[3] = test system: barnyardgrass (Echinochloa crus-galli); test: Test G Pre-Emergence Protocol; conditions: Echinochloa crus-galli, pre-emergence, 312 h, evaluated after 13 days; for pest or weed control at 15.625 g/ha: 15.625 g ai/ha; for pest or weed control at 15.625 g/ha / pest or weed control at 250 g/ha: read-out: Barnyardgrass damage rating (100=total damage to plant; 0=no damage to plant); for pest or weed control at 62.5 g/ha: 62.5 g ai/ha, 100=total damage to plant, 0=no damage to plant, read-out: Barnyardgrass damage rating; for pest or weed control at 250 g/ha: 250 g ai/ha
Summary of the method: as §1

[4] = test system: ivy-leaved morning glory (Ipomoea hederacea); test: Test G Pre-Emergence Protocol; conditions: Ipomoea, pre-emergence, 312 h, evaluated after 13 days; for pest or weed control at 15.625 g/ha: 15.625 g ai/ha; for pest or weed control at 15.625 g/ha / pest or weed control at 250 g/ha: read-out: Morningglory, Ivy-leaved damage rating (100=total damage to plant; 0=no damage to plant); for pest or weed control at 62.5 g/ha: 62.5 g ai/ha, 100=total damage to plant, 0=no damage to plant, read-out: Morningglory, Ivy-leaved damage rating; for pest or weed control at 250 g/ha: 250 g ai/ha
Summary of the method: as §1

[5] = test system: redroot pigweed (Amaranthus retroflexus); test: Test G Pre-Emergence Protocol; conditions: Amaranthus retroflexus, pre-emergence, 312 h, evaluated after 13 days; for pest or weed control at 15.625 g/ha: 15.625 g ai/ha; for pest or weed control at 15.625 g/ha / pest or weed control at 250 g/ha: read-out: Pigweed, Redroot damage rating (100=total damage to plant; 0=no damage to plant); for pest or weed control at 62.5 g/ha: 62.5 g ai/ha, 100=total damage to plant, 0=no damage to plant, read-out: Pigweed, Redroot damage rating; for pest or weed control at 250 g/ha: 250 g ai/ha
Summary of the method: as §1

[6] = test system: giant foxtail (Setaria faberi); test: Test G Pre-Emergence Protocol; conditions: Setaria faberi, pre-emergence, 312 h, evaluated after 13 days; for pest or weed control at 15.625 g/ha: 15.625 g ai/ha; for pest or weed control at 15.625 g/ha / pest or weed control at 250 g/ha: read-out: Foxtail, Giant damage rating (100=total damage to plant; 0=no damage to plant); for pest or weed control at 62.5 g/ha: 62.5 g ai/ha, 100=total damage to plant, 0=no damage to plant, read-out: Foxtail, Giant damage rating; for pest or weed control at 250 g/ha: 250 g ai/ha
Summary of the method: as §1

[7] = test system: velvetleaf (Abutilon theophrasti); test: Test G Post-Emergence Protocol; conditions: Abutilon theophrasti, post-emergence, 312 h, read-out: Velvetleaf damage rating; for pest or weed control at 15.625 g/ha: 15.625 g ai/ha, evaluated after 13 days (100=total damage to plant; 0=no damage to plant); for pest or weed control at 62.5 g/ha: 62.5 g ai/ha; for pest or weed control at 62.5 g/ha / pest or weed control at 250 g/ha: evaluated after 13 days, 100=total damage to plant, 0=no damage to plant; for pest or weed control at 250 g/ha: 250 g ai/ha
Summary of the method: (§2)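 Post-emergence herbicidal damage, scored visually 0–100 at 13 days. Application at 15.625, 62.5 or 250 g/ha onto 8-day-old plants grown under glasshouse control.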

[8] = test system: corn (Zea mays); test: Test G Post-Emergence Protocol; conditions: Zea mays, post-emergence, 312 h, read-out: Corn damage rating; for plant injury at 15.625 g/ha: 15.625 g ai/ha, evaluated after 13 days (100=total damage to plant; 0=no damage to plant); for plant injury at 62.5 g/ha: 62.5 g ai/ha; for plant injury at 62.5 g/ha / plant injury at 250 g/ha: evaluated after 13 days, 100=total damage to plant, 0=no damage to plant; for plant injury at 250 g/ha: 250 g ai/ha
Summary of the method: as §2

[9] = test system: barnyardgrass (Echinochloa crus-galli); test: Test G Post-Emergence Protocol; conditions: Echinochloa crus-galli, post-emergence, 312 h, read-out: Barnyardgrass damage rating; for pest or weed control at 15.625 g/ha: 15.625 g ai/ha, evaluated after 13 days (100=total damage to plant; 0=no damage to plant); for pest or weed control at 62.5 g/ha: 62.5 g ai/ha; for pest or weed control at 62.5 g/ha / pest or weed control at 250 g/ha: evaluated after 13 days, 100=total damage to plant, 0=no damage to plant; for pest or weed control at 250 g/ha: 250 g ai/ha
Summary of the method: as §2

[10] = test system: ivy-leaved morning glory (Ipomoea hederacea); test: Test G Post-Emergence Protocol; conditions: Ipomoea, post-emergence, 312 h, read-out: Morningglory, Ivy-leaved damage rating; for pest or weed control at 15.625 g/ha: 15.625 g ai/ha, evaluated after 13 days (100=total damage to plant; 0=no damage to plant); for pest or weed control at 62.5 g/ha: 62.5 g ai/ha; for pest or weed control at 62.5 g/ha / pest or weed control at 250 g/ha: evaluated after 13 days, 100=total damage to plant, 0=no damage to plant; for pest or weed control at 250 g/ha: 250 g ai/ha
Summary of the method: as §2

[11] = test system: redroot pigweed (Amaranthus retroflexus); test: Test G Post-Emergence Protocol; conditions: Amaranthus retroflexus, post-emergence, 312 h, read-out: Pigweed, Redroot damage rating; for pest or weed control at 15.625 g/ha: 15.625 g ai/ha, evaluated after 13 days (100=total damage to plant; 0=no damage to plant); for pest or weed control at 62.5 g/ha: 62.5 g ai/ha; for pest or weed control at 62.5 g/ha / pest or weed control at 250 g/ha: evaluated after 13 days, 100=total damage to plant, 0=no damage to plant; for pest or weed control at 250 g/ha: 250 g ai/ha
Summary of the method: as §2

[12] = test system: giant foxtail (Setaria faberi); test: Test G Post-Emergence Protocol; conditions: Setaria faberi, post-emergence, 312 h, read-out: Foxtail, Giant damage rating; for pest or weed control at 15.625 g/ha: 15.625 g ai/ha, evaluated after 13 days (100=total damage to plant; 0=no damage to plant); for pest or weed control at 62.5 g/ha: 62.5 g ai/ha; for pest or weed control at 62.5 g/ha / pest or weed control at 250 g/ha: evaluated after 13 days, 100=total damage to plant, 0=no damage to plant; for pest or weed control at 250 g/ha: 250 g ai/ha
Summary of the method: as §2

| SMILES | pest or weed control at 15.625 g/ha [1] | pest or weed control at 62.5 g/ha [1] | pest or weed control at 250 g/ha [1] | plant injury at 15.625 g/ha [2] | plant injury at 62.5 g/ha [2] | plant injury at 250 g/ha [2] | pest or weed control at 15.625 g/ha [3] | pest or weed control at 62.5 g/ha [3] | pest or weed control at 250 g/ha [3] | pest or weed control at 15.625 g/ha [4] | pest or weed control at 62.5 g/ha [4] | pest or weed control at 250 g/ha [4] | pest or weed control at 15.625 g/ha [5] | pest or weed control at 62.5 g/ha [5] | pest or weed control at 250 g/ha [5] | pest or weed control at 15.625 g/ha [6] | pest or weed control at 62.5 g/ha [6] | pest or weed control at 250 g/ha [6] | pest or weed control at 15.625 g/ha [7] | pest or weed control at 62.5 g/ha [7] | other results |
| --- | --- | --- | --- | --- | --- | --- | --- | --- | --- | --- | --- | --- | --- | --- | --- | --- | --- | --- | --- | --- | --- |
| CN1C[C@@H](c2ccc(C(F)(F)F)cc2)[C@H](C(=O)Nc2cscn2)C1=O (racemic) [Compound 1659] | 0% | 0% | 0% | 0% | 0% | 0% | 0% | 0% | 0% | 0% | 0% | 0% | 0% | 0% | 0% | 0% | 0% | 0% | 0% | 0% | pest or weed control at 250 g/ha [7]: 0%; plant injury at 15.625 g/ha [8]: 0%; plant injury at 62.5 g/ha [8]: 0%; plant injury at 250 g/ha [8]: 10%; pest or weed control at 15.625 g/ha [9]: 0%; pest or weed control at 62.5 g/ha [9]: 0%; pest or weed control at 250 g/ha [9]: 20%; pest or weed control at 15.625 g/ha [10]: 0%; pest or weed control at 62.5 g/ha [10]: 0%; pest or weed control at 250 g/ha [10]: 0%; pest or weed control at 15.625 g/ha [11]: 0%; pest or weed control at 62.5 g/ha [11]: 0%; pest or weed control at 250 g/ha [11]: 20%; pest or weed control at 15.625 g/ha [12]: 0%; pest or weed control at 62.5 g/ha [12]: 0%; pest or weed control at 250 g/ha [12]: 40% |
| CC(C)S(=O)(=O)c1ccccc1NC(=O)[C@H]1C(=O)N(C)C[C@@H]1c1ccc(C(F)(F)F)cc1 (racemic) [Compound 1665] | 0% | 0% | 0% | 0% | 0% | 0% | 0% | 0% | 20% | 0% | 0% | 20% | 0% | 0% | 20% | 0% | 0% | 80% | 0% | 0% | pest or weed control at 250 g/ha [7]: 0%; plant injury at 15.625 g/ha [8]: 0%; plant injury at 62.5 g/ha [8]: 0%; plant injury at 250 g/ha [8]: 0%; pest or weed control at 15.625 g/ha [9]: 0%; pest or weed control at 62.5 g/ha [9]: 0%; pest or weed control at 250 g/ha [9]: 40%; pest or weed control at 15.625 g/ha [10]: 0%; pest or weed control at 62.5 g/ha [10]: 0%; pest or weed control at 250 g/ha [10]: 0%; pest or weed control at 15.625 g/ha [11]: 0%; pest or weed control at 62.5 g/ha [11]: 0%; pest or weed control at 250 g/ha [11]: 40%; pest or weed control at 15.625 g/ha [12]: 0%; pest or weed control at 62.5 g/ha [12]: 0%; pest or weed control at 250 g/ha [12]: 60% |

Source: patent US12077503B2, “Substituted cyclic amides and their use as herbicides” (FMC CORPORATION, priority 2015, dated 2024)
